In ChEMBL document CHEMBL4422610, “HDAC as onco target: Reviewing the synthetic approaches with SAR study of their inhibitors” (Eur J Med Chem, 2018) one finds IC50 and inhibition data, which are given here for 16 molecules.

For one experiment, the target named is T1, Histone deacetylase 1 (Homo sapiens, UniProt Q13547). The experiment can be described thus: Inhibition of recombinant human GST-tagged HDAC1 expressed in baculovirus infected Sf9 insect cells Fluor-de-lys as substrate measured after 2 hrs by fluorescence assay.
T1 sequence (Q13547 whole entry): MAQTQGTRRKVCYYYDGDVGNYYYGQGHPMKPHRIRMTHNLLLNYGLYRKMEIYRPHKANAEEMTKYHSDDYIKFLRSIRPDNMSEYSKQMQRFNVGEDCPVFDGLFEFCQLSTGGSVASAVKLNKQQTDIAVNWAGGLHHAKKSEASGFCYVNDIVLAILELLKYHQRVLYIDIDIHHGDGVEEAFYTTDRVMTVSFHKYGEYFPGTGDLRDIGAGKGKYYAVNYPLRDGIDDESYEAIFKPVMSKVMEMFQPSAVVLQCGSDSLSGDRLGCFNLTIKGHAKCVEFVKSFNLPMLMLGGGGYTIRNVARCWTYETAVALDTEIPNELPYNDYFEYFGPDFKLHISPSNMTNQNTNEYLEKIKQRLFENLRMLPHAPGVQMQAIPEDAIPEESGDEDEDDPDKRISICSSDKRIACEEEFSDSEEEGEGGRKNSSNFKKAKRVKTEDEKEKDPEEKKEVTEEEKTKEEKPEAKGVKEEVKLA
Conditions: not given
Regarding `CCCCc1nc2cc(/C=C/C(=O)NO)ccn2c1CN(CC)CCCC`, the IC50 came to 0.06 µM.

The next experiment relates to Zea mays. The experiment can be described thus: Inhibition of maize HD2 at 5 uM using [3H]acetate-labelled histone as substrate by liquid scintillation counting method relative to control.
Conditions: not given
For `Cn1cc(C(=O)c2ccc(Cl)cc2)cc1/C=C/C(=O)NO`, the inhibition worked out at 87%. The molecule `Cc1ccc(C(=O)c2cc(/C=C/C(=O)NO)n(C)c2)cc1` returned an inhibition of 86.4%. On the same count and under the same terms, with `Cn1cc(C(=O)c2ccccc2)cc1CCC(=O)NO` the figure was 45%; with `Cn1cc(C(=O)c2ccccc2)cc1/C=C/C(=O)NN`, 0.2%. Same read-out and setting: with `Cn1cc(C(=O)c2ccccc2)cc1/C=C/C(=O)NO` the figure was 86%.

For the next experiment, the target named is Histone deacetylase. The experiment is classed as cell-based, Homo sapiens. The following applies: hela.
`CCN(CC)CCN(Cc1ccc(C(=O)NO)cc1)C(=O)c1cc2c([nH]c3ccccc32)c(-c2ccc(OC)cc2)n1`: the IC50 stood at 0.12 µM. On the same count and under the same terms, under `CCCN(Cc1ccc(C(=O)NO)cc1)C(=O)c1cc2c([nH]c3ccccc32)c(-c2ccc(OC)cc2)n1` stands 0.26 µM; under `COc1ccc2c(c1)[nH]c1c(C)nccc12` [HARMINE], over 10 µM; under `COc1ccc(-c2nc(C(=O)N(CCN(C)C)Cc3ccc(C(=O)NO)cc3)cc3c2[nH]c2ccccc23)cc1`, 0.092 µM.

For a further experiment, the target named is T2, Protein deacetylase HDAC6 (Homo sapiens, UniProt Q9UBN7).
T2 sequence (Q9UBN7 whole entry): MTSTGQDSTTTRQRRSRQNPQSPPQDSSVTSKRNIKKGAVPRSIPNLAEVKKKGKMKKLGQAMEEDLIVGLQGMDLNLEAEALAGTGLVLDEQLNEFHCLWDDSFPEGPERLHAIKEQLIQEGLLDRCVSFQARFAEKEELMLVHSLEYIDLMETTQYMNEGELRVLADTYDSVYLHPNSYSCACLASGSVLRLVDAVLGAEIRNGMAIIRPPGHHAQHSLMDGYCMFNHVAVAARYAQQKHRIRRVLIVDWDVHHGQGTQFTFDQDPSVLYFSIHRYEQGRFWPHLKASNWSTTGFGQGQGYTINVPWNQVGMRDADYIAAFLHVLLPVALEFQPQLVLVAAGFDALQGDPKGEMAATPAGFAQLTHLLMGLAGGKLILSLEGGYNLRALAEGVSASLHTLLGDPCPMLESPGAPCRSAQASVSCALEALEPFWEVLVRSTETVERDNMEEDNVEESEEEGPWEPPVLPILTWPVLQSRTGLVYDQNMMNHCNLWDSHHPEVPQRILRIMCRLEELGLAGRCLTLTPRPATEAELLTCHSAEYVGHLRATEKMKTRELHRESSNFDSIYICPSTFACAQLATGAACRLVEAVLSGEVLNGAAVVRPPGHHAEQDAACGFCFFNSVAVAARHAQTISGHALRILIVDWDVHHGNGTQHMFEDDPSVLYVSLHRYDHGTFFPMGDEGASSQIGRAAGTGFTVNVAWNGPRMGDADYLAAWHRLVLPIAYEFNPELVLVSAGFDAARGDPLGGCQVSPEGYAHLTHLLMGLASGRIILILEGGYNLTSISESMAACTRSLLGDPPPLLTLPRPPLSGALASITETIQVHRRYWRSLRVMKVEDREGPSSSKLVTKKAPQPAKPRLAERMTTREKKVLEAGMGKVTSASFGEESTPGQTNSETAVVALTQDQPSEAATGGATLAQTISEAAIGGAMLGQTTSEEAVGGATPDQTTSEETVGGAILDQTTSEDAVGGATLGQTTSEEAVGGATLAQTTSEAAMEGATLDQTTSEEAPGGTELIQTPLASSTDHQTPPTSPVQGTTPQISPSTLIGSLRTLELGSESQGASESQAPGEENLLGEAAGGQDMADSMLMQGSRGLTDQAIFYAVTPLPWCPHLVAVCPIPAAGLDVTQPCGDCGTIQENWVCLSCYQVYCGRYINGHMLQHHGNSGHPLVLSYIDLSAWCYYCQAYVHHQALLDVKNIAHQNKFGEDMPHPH
The experiment in a line: Inhibition of recombinant full-length human HDAC6 expressed in baculovirus expression system using FAM-RHKK(Ac)-H2 as substrate measured by electrophoretic mobility shift assay.
Conditions: not given
On the technique in general: Mobility shift assays separate free from complexed probe on a gel.
Turning to `O=C(NO)c1ccc2c(c1)CC1(CC2)CCN(Cc2ccccc2OC(F)(F)F)C1=O` (stereo not given), the IC50 was in the range of 0.1 to 0.5 µM.

Turning to `O=C(NO)c1ccc2c(c1)CC1(CC2)CCN(Cc2ccncc2)C1=O` (stereo not given), the IC50 is over 0.5 µM. Still for that read-out and setting: under `O=C(NO)c1ccc2c(c1)CC1(CC2)CCN(Cc2ccc(OC(F)(F)F)cc2)C1=O` (stereo not given) stands at most 0.1 µM.

In another experiment the target is T1, Histone deacetylase 1. The experiment can be described thus: Inhibition of recombinant human HDAC1 expressed in HEK293T cells using Ac-KGLGK(Ac)-MCA as substrate measured after 30 mins by fluorescence assay.
Conditions: not given
For `O=C1N[C@@H]2CCCCCCCCCCC[C@H](NC2=O)C(=O)N2CCC[C@@H]2C(=O)N[C@H]1CCCCCB(O)O`, the IC50 is 12 µM. The same measure, in the same setting: with `COCC(=O)CCCCC[C@@H]1NC(=O)[C@H]2CCCN2C(=O)[C@@H]2CCCCCCCCCCC[C@@H](NC1=O)C(=O)N2` the figure was 0.027 µM.

The target in the next experiment is Histone deacetylase 4 (Homo sapiens, UniProt P56524). The experiment in a line: Inhibition of recombinant human HDAC4 expressed in HEK293T cells using Ac-KGLGK(Ac)-MCA as substrate measured after 30 mins by fluorescence assay.
Sequence of Histone deacetylase 4 (P56524 whole entry): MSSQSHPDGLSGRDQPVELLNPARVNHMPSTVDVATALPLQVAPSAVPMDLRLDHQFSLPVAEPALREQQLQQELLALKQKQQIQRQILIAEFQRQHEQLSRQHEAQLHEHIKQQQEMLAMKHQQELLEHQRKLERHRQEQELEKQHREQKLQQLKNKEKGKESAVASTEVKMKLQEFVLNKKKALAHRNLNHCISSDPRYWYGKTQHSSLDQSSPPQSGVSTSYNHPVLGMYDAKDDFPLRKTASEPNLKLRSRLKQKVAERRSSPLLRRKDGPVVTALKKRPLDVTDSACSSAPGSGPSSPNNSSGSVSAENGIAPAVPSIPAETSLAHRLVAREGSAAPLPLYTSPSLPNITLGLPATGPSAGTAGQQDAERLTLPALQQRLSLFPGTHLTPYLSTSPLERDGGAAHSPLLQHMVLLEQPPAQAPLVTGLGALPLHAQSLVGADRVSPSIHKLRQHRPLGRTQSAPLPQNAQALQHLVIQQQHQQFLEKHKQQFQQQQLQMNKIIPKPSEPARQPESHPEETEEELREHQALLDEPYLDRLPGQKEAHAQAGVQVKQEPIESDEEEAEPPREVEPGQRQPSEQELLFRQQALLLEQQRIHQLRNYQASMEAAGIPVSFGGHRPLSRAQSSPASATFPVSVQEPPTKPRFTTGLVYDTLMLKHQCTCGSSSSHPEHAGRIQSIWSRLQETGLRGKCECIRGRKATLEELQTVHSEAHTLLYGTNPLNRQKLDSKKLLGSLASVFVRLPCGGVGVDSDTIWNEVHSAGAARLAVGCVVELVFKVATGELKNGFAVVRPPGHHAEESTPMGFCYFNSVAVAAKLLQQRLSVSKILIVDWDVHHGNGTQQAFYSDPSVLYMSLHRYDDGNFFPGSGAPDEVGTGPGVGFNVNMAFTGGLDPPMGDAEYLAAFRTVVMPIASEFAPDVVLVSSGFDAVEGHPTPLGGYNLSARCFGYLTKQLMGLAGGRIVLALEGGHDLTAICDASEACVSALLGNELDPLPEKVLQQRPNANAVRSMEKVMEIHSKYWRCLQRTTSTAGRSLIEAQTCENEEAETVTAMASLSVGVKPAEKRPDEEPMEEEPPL
Conditions: not given
For the molecule `O=C1N[C@@H]2CCCCCCCCCCC[C@H](NC2=O)C(=O)N2CCC[C@@H]2C(=O)N[C@H]1CCCCCB(O)O`, the IC50 is 9.4 µM. Consider `COCC(=O)CCCCC[C@@H]1NC(=O)[C@H]2CCCN2C(=O)[C@@H]2CCCCCCCCCCC[C@@H](NC1=O)C(=O)N2`, for which the IC50 amounted to 0.026 µM.

The next experiment has as its target T3, Protein deacetylase HDAC6 (Mus musculus, UniProt Q9Z2V5).
T3 sequence (Q9Z2V5 whole entry): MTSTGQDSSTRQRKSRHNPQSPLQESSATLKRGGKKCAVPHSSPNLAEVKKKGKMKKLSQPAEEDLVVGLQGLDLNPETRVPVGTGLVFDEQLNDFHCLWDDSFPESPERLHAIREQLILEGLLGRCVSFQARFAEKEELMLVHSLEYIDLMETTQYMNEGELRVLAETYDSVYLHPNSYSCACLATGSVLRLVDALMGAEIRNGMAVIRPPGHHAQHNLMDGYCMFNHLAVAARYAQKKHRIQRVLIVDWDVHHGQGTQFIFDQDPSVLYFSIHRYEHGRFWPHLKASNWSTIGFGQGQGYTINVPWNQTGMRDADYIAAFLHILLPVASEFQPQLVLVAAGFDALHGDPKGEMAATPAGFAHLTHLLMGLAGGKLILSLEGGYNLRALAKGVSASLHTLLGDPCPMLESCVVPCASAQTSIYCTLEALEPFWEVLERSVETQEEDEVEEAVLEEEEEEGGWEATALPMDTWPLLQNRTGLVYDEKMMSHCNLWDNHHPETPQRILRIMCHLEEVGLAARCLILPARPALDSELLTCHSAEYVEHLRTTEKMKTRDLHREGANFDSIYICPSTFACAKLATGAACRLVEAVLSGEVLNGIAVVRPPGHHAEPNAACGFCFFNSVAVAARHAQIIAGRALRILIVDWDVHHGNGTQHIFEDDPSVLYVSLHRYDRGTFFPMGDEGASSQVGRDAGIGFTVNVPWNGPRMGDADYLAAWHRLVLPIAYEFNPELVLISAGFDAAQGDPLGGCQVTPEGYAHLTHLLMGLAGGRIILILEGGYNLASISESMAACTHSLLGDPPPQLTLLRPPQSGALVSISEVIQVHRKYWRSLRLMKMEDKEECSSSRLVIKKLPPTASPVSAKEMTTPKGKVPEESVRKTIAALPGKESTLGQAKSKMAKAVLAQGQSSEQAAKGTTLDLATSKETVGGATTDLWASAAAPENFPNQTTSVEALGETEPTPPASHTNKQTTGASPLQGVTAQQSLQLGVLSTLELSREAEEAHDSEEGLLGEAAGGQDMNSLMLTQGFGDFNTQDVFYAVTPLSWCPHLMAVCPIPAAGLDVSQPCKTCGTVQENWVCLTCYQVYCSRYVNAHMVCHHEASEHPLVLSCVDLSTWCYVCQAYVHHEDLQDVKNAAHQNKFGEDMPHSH
The experiment in a line: Inhibition of recombinant mouse HDAC6 expressed in HEK293T cells using Ac-KGLGK(Ac)-MCA as substrate measured after 30 mins by fluorescence assay.
Conditions: not given
With `O=C1N[C@@H]2CCCCCCCCCCC[C@H](NC2=O)C(=O)N2CCC[C@@H]2C(=O)N[C@H]1CCCCCB(O)O`, the IC50 is over 100 µM. For `O=C(CCCCC[C@@H]1NC(=O)[C@H]2CCCN2C(=O)[C@@H]2CCCCCCCCCCC[C@@H](NC1=O)C(=O)N2)NO`, the IC50 came out at 0.28 µM. Turning to `COCC(=O)CCCCC[C@@H]1NC(=O)[C@H]2CCCN2C(=O)[C@@H]2CCCCCCCCCCC[C@@H](NC1=O)C(=O)N2`, the IC50 was over 100 µM.

As usually defined, the IC50 is the midpoint of a concentration-inhibition curve. By inhibition is commonly meant the share of the control response that was lost under treatment. Higher therefore signals strong suppression.
